Experimental findings from patent US6342503B1, “1N-alkyl-n-arylpyrimidinamines and derivatives thereof” (DuPont Pharmaceuticals Company, priority 1993, dated 2002) are described below.

Structures can show the parent of a compound that is named as a salt.

The target of one data set is T1, CRF receptor (Rattus norvegicus, UniProt P35353).
T1 construct: 100 μl of membrane suspension as prepared above to give a total reaction volume of 300 μl; from tissue; host or cells: rat cerebral cortex membrane homogenate
T1 sequence (P35353 24-415): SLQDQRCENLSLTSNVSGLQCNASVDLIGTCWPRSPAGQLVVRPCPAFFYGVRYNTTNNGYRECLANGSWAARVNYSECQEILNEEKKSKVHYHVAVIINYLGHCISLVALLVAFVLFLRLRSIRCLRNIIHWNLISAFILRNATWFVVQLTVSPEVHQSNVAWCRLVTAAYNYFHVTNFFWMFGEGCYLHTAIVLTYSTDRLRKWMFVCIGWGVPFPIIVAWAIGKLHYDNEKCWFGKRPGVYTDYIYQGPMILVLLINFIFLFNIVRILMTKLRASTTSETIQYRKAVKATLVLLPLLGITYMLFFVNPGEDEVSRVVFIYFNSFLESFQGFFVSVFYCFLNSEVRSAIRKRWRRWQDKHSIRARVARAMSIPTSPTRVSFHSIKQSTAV
Put plainly: In vitro CRF receptor binding assay (competition with [125I] ovine CRF, rat cortex membranes). As to conditions: competition with [125I] ovine CRF, 2 h at 22° C.; Ki classes; read-out: Inhibition Ki. On the procedure: In vitro Receptor Binding Assay
Tissue Preparation: Male Sprague Dawley rats (180-200 g) were sacrificed by decapitation and the cortex was dissected on ice, frozen whole in liquid nitrogen and stored at −70° C. until use. On the day of assay, frozen tissue was weighed and homogenized in 20 volumes of ice cold buffer containing 50 mM Tris, 10 mM MgCl2, 2 mM EGTA, pH 7.0 at 22° C. using a Polytron (Brinkmann Instruments, Westbury, N.Y.; setting 6) for 20 s. The homogenate was centrifuged at 48,000× g for 10 min at 4° C. The supernatant was discarded, and the pellet was re-homogenized in the same volume of buffer and centrifuged at 48,000× g for 10 min at 4° C. The resulting pellet was resuspended in the above buffer to a final concentration of 20-40 mg original wet weight/mL and used in the assays described below.
CRF Receptor Binding: Receptor binding assays were carried out essentially as described by E. B. De Souza, J. Neurosci. […]
All assays were carried out at equilibrium for 2 h at 22° C. as described by E. B. De Souza, J. Neurosci. […] The reaction was terminated by centrifugation of the tubes in a Beckman microfuge for 5 min at 12,000× g. Aliquots of the supernatant were collected to determine the “free” radioligand concentration. The remaining supernatant was aspirated and the pellets washed gently with ice-cold PBS plus 0.01% Triton X-100; centrifuged again and monitored for bound radioactivity as described above. […] This program has the distinct advantage of fitting the raw experimental data on an untransformed coordinate system where errors are most likely to be normally distributed and uncorrelated with the independent variable. […] The parameters for the affinity constants (KD) and receptor densities (Bmax) are also provided along with statistics on the general “fit” of the estimated parameters to the raw data.
Competition Curve Analysis
The resulting pellets were surface washed twice by centrifugation with 1 mL of ice-cold phosphate buffered saline and 0.01% Triton X-100; the supernatants discarded and the pellets monitored for radioactivity at approximately 80% efficiency. The level of non-specific binding was defined in the presence of […] unlabeled rat/humanCRF (r/hCRF). Data from competition curves were analyzed by the program LIGAND. […] Routinely, the data were analyzed using a one- and two-site model comparing the “goodness of fit” between the models in order to accurately determine the Ki. Statistical analyses provided by LIGAND allowed the determination of whether a single-site or multiple-site model should be used.
In Table 17; the Ki values were determined using the assay conditions described above.
`CCN(c1nc(C)cc(C)n1)c1ccc(C(C)=NOC)cc1SC` [compound 178, N-(2-methylthio-4-methoxyiminoethylphenyl)-N-ethyl-4,6-dimethyl-2-pyrimidinamine]: the inhibitory constant (Ki) is less than 0.5 µM.

The same data set, now with this note: read-out: Inhibition Ki.
Take `Cc1cc(C)nc(N(C)c2ccc(I)cc2)n1` [compound 52]: the Ki was 2 to 10 µM. Still for that read-out and setting: in the case of `CCN(c1nc(C)cc(C(=O)N2CCN(c3ccccn3)CC2)n1)c1ccc(C(C)C)cc1Br` [compound 274] it was 2 to 10 µM; in that of `CCN(c1nccc(C)n1)c1ccc(C(C)C)cc1Br` [compound 49, N-(2-Bromo-4-(1-methylethyl)phenyl)-N-ethyl-4-methyl-2-pymidinamine], 2 to 10 µM. Still for that read-out and setting: under `CCN(c1nc(C)nc(N2CCSCC2)n1)c1ccc(C(C)C)cc1I` [compound 135] stands less than 0.5 µM; under `Cc1cc(C)nc(N(C)c2ccc(C(C)C)cc2Br)n1` [compound 4, N-(2-bromo-4-(1-methylethyl)phenyl)-N-methyl-4,6-dimethyl-2-pymidinamine], less than 0.5 µM; under `CCN(c1nc(C)cc(C(=O)N2CCOCC2)n1)c1ccc(C(C)C)cc1Br` [compound 58, N-(2-bromo-4-(1-methylethyl)phenyl)-N-ethyl-4-methyl-6-(4-morpholinylcarbonyl)-2-pyrimidinamine], less than 0.5 µM. Same read-out and setting: in the case of `CCN(c1nc(C)nc(OCc2ccccc2)n1)c1ccc(C(C)C)cc1Br` [compound 242, N-[2-bromo-4(1-methylethyl)phenyl]-N-ethyl-4-methyl-6-benzyloxy-1,3,5 triazin-2-amine] it was 0.501 to 2 µM.

Consider `CCN(c1nc(C)cc(COC)n1)c1ccc(C(C)C)cc1I` [compound 207], for which the Ki is less than 0.5 µM. Consider `CCN(c1nc(C)cc(COc2cccc(N(C)C)c2)n1)c1ccc(C(C)C)cc1Br` [compound 215], for which the Ki was in the range of 0.501 to 2 µM.

On to `CCN(c1nc(C)cc(C(O)c2ccc(OC)cc2)n1)c1ccc(C(C)C)cc1Br` (stereo not shown) [compound 292], for which the Ki was less than 0.5 µM.

Test system in the next data set: not given
Assay: not given
Details: not given
`CCN(c1cc(OC)nc(OC)n1)c1ccc(C(C)C)cc1Br` (as salt: hydrochloride) [compound 130] registered a melting point of 104 to 106 °C. Consider `CCN(c1nc(C)nc(N2CCOCC2)n1)c1ccc(C(C)C)cc1Br` (as salt: hydrochloride) [compound 134, N-[2-bromo-4-(1-methylethyl)phenyl]-N-ethyl-4-methyl-6-(4-morpholinyl)-1,3,5-triazin-2-amine], for which the melting point lay within 59 to 63 °C. As for `Cc1cc(C)nc(N(C)c2ccc(C(C)(C)C)cc2Br)n1` (as salt: hydrochloride) [compound 11], the melting point lay within 193 to 195 °C. Same read-out and setting: under `Cc1cc(C)nc(N(C)c2ccc(C(C)C)cc2Br)n1` (as salt: hydrochloride) [compound 4, N-(2-bromo-4-(1-methylethyl)phenyl)-N-methyl-4,6-dimethyl-2-pymidinamine] stands 163 to 164 °C. Compound `CCSc1cc(C(C)C)ccc1N(CC)c1nc(C)cc(C)n1` (as salt: hydrochloride) [compound 175, N-(2-ethylthio-4-(1-methylethyl)phenyl)-N-ethyl-4,6dimethyl-2-pyrimidinamine] displayed a melting point of 128 to 130 °C.

In turn, `CCN(c1nc(C)cc(CN2CCN(c3ncccn3)CC2)n1)c1ccc(C(C)C)cc1Br` (as salt: HCl) [compound 281] returned a melting point of 125 to 127 °C.

Turning to `Cc1cc(C)nc(N(C)c2ccccc2I)n1` (as salt: hydrochloride) [compound 53], the melting point lay in the range of 164 to 166 °C.

`CCN(c1nc(C)cc(OC[C@@H]2CCCN2C)n1)c1ccc(C(C)C)cc1SC` (as salt: hydrochloride) [compound 177, N-(2-methylthio4-(1-methylethyl)phenyl)-N-ethyl-4(S)-(N-methyl-2′-pyrrolidinomethoxy)-6-methyl-2-pyrimidinamine] yielded a melting point of 101 to 103 °C. Take `Cc1cc(C)nc(N(CC2CC2)c2ccc(C(C)C)cc2Br)n1` (as salt: hydrochloride) [compound 33]: the melting point lay within 146 to 148 °C.

For `CCN(c1nc(C)cc(CN2CCN(c3ccccc3OC)CC2)n1)c1ccc(C(C)C)cc1Br` (as salt: HCl) [compound 275], the melting point lay in the range of 102 to 104 °C.

Compound `Cc1cc(Cl)c2c(C#N)cn(-c3ccc(C(C)C)cc3Br)c2n1` [Synth. Ex. 74, 1-(2-Bromo-4-isopropylphenyl)-4-chloro-3-cyano-6-methyl-7-azaindole] displayed a melting point of 123.3 °C. The same measure, in the same setting: under `CCN(c1nc(C)nc(OCc2ccccc2)n1)c1ccc(C(C)C)cc1Br` (as salt: hydrochloride) [compound 242, N-[2-bromo-4(1-methylethyl)phenyl]-N-ethyl-4-methyl-6-benzyloxy-1,3,5 triazin-2-amine] stands 89 to 90 °C; under `Cc1cc(C)nc(N(C)c2ccc(I)cc2)n1` (as salt: hydrochloride) [compound 52], 175 to 177 °C. Same read-out and setting: in the case of `CCCCc1ccc(N(CC)c2nc(CC)cc(CC)n2)c(Br)c1` (as salt: hydrochloride) [compound 24] it was 116 to 118 °C; in that of `CCN(c1nc(C)cc(C)n1)c1ccc(C(C)C)cc1SC` (as salt: hydrochloride) [compound 170, N-(2-methylthio-4-(1-methylethyl)phenyl)-N-ethyl-4,6dimethyl-2-pyrimidinamine], 141 to 142 °C.

For `CCN(c1nc(C)cc(C)n1)c1ccc(C(C)C)cc1[S+](C)[O-]` (stereo not shown) [compound 169, N-(2-methylsulfinyl-4-(1-methylethyl)phenyl)-N-ethyl-4,6-dimethyl-2-pyrimidinamine], the melting point was 144 to 146 °C. Regarding `CCN(c1nc(C)cc(NN)n1)c1ccc(C(C)C)cc1Br` (as salt: hydrochloride) [compound 146], the melting point is 117 to 121 °C. Same read-out and setting: in the case of `CCN(c1nccc(C)n1)c1ccc(C(C)C)cc1Br` (as salt: hydrochloride) [compound 49, N-(2-Bromo-4-(1-methylethyl)phenyl)-N-ethyl-4-methyl-2-pymidinamine] it was 145 to 147 °C. Same read-out and setting: in the case of `C=CCN(c1nc(C)cc(N2CCOCC2)n1)c1ccc(C(C)C)cc1Br` (as salt: hydrochloride) [compound 17] it was 208 to 211 °C. The same measure, in the same setting: under `CCN(c1nc(C)cc(C)n1)c1ccc(C(C)C)cc1Br` (as salt: hydrochloride) [compound 21, N-(2-bromo-4-(1-methylethyl)phenyl)-N-ethyl-4,6dimethyl-2-pyrimidinamine] stands 151 to 153 °C; under `Cc1cc(C)nc(N2CCCSc3cc(C(C)C)ccc32)n1` (as salt: hydrochloride) [compound 173], 157 to 159 °C; under `Cc1ccc(N(C)c2nc(C)cc(C)n2)c(Br)c1` (as salt: hydrochloride) [compound 1, N-(2-bromo-4-methylphenyl)-N-methyl-4,6-dimethyl-2-pymidinamine], 120 to 121 °C. Consider `CCN(c1nc(C)cc(CN2CCN(c3ccccn3)CC2)n1)c1ccc(C(C)C)cc1Br` (as salt: HCl) [compound 280], for which the melting point lay within 117 to 119 °C. The same measure, in the same setting: in the case of `CCc1ccc(N(C)c2nc(C)cc(C)n2)c(Br)c1` (as salt: hydrochloride) [compound 9, N-(2-bromo-4-ethylphenyl)-N-methyl-4,6-dimethyl-2-pypimidinamine] it was 126 to 127 °C; in that of `CCN(c1nc(C)cc(OCCN(C)C)n1)c1ccc(C(C)C)cc1Br` (as salt: hydrochloride) [compound 161], 143 to 146 °C; in that of `C=CCN(c1nc(C)cc(C)n1)c1ccccc1Br` (as salt: hydrochloride) [compound 3], 127 to 129 °C.

As usually defined, the Ki is the dissociation constant of the complex between target and ligand, obtained from inhibition or displacement. The melting point is the temperature of the solid-liquid transition.
